# Like-named read-outs stand apart in the source and are kept apart here.
# Experiments:
# Format in all cases: cell-based
# hGCGR = biological target: T1, hGCGR (Homo sapiens, UniProt P47871); experiment: Functional cAMP formation (HTRF) in HEK-293 clonal cells expressing hGCGR, 0.1% bovine casein, without or with 1.0% human serum albumin; settings: geometric mean
# T1 construct: expressed in transfected cells
# Procedure, shortened: (§1)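 Cells were stimulated with peptide for 30 min at 37° C, then intracellular cAMP was measured by competitive HTRF (665/620 nm ratio) and converted to nM using a cAMP standard curve. Relative EC50 and Emax came from four-parameter logistic fits of percent maximal response against peptide concentration.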
# hGIPR = biological target: T2, hGIPR (Homo sapiens, UniProt P48546); experiment: Functional cAMP formation (HTRF) in HEK-293 clonal cells expressing hGIPR, 0.1% bovine casein, without or with 1.0% human serum albumin; settings: for EC50: geometric mean
# T2 construct: expressed in transfected cells
# T2 sequence (P48546 22-466): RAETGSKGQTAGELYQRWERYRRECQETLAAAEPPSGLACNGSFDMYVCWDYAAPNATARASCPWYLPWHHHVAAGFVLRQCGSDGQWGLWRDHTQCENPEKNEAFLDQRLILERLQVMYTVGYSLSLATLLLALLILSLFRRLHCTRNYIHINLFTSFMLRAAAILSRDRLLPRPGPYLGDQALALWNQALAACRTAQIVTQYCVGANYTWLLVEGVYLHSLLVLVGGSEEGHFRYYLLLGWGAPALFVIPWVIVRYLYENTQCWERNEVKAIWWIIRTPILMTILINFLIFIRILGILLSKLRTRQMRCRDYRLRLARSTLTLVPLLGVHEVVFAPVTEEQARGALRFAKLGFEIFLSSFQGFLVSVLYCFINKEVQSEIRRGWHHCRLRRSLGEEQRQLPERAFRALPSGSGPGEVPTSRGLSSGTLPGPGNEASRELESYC
# Procedure, shortened: as §1
# hGLP-1R = hGLP-1R (Homo sapiens, UniProt P43220); experiment: Functional cAMP formation (HTRF) in HEK-293 clonal cells expressing hGLP-1R, 0.1% bovine casein, without or with 1.0% human serum albumin; set-up: expressed in transfected cells; settings: for EC50: geometric mean, read-out: hGLP-1R EC50, nM (SEM, n)
# Chain of hGLP-1R (P43220 24-463): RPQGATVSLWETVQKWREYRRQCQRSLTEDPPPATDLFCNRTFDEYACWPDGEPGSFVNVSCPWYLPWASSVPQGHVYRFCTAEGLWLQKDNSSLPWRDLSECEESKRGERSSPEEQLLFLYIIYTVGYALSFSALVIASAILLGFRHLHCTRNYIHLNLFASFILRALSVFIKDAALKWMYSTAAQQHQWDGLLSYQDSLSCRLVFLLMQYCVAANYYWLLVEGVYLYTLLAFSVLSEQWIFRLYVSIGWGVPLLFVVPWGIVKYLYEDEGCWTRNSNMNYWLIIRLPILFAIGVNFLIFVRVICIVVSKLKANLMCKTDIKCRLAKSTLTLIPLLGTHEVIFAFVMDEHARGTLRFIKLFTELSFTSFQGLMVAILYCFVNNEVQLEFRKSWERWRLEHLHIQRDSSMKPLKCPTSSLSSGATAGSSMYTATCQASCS
# Procedure, shortened: as §1
# [1] = 0.1% bovine casein and 1.0% human serum albumin, 37° C., read-out: hGCGR EC50, nM (SEM, n)
# [2] = cAMP, incubated at 37° C., 0.1% bovine casein (no human serum albumin), read-out: hGCGR EC50, nM (SEM, n)
# [3] = HEK293, 0.1% bovine casein and 1.0% human serum albumin, 37° C., percent of maximal response to GIP(1-42)NH2, read-out: hGIPR Emax, % ± SEM
# [4] = HEK293, percent of maximal response to GIP(1-42)NH2, 37° C., 0.1% bovine casein, arithmetic mean, read-out: hGIPR Emax, % ± SEM
# [5] = cAMP, incubated at 37° C., 0.1% bovine casein (no human serum albumin), read-out: hGIPR EC50, nM (SEM, n)
# [6] = 0.1% bovine casein and 1.0% human serum albumin, 37° C.
# [7] = cAMP, incubated at 37° C., 0.1% bovine casein (no human serum albumin)
# T1 sequence (P47871 26-477): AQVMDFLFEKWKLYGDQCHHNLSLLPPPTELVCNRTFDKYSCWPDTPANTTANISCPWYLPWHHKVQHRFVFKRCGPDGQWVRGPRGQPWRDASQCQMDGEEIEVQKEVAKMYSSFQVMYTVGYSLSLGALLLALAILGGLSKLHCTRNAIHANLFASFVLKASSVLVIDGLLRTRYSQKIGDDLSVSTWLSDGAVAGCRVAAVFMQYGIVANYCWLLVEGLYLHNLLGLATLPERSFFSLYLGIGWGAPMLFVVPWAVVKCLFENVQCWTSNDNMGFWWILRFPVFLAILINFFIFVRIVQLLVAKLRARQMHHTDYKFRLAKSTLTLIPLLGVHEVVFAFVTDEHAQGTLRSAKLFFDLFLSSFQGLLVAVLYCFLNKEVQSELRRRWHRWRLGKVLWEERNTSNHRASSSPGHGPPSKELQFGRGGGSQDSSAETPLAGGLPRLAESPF
SMILES,EC50 (hGCGR; [1]) [nM],EC50 (hGCGR; [2]) [nM],Emax (hGIPR; [3]) [%],Emax (hGIPR; [4]) [%],EC50 (hGIPR; [5]) [nM],EC50 (hGLP-1R; [6]) [nM],"Emax (hGLP-1R; HEK293, 0.1% bovine casein and 1.0% human serum albumin, 37° C., percent of maximal response to GLP-1(7-36)NH2, read-out: hGLP-1R Emax, % ± SEM) [%]","Emax (hGLP-1R; HEK293, percent of maximal response to GLP-1(7-36)NH2, 37° C., 0.1% bovine casein, arithmetic mean, read-out: hGLP-1R Emax, % ± SEM) [%]",EC50 (hGLP-1R; [7]) [nM],"EC50 (hGCGR; hGCGR EC50, nM (SEM, n), 0.1% bovine casein and 1.0% human serum albumin, 37° C.) [nM]","EC50 (hGCGR; hGCGR EC50, nM (SEM, n), cAMP, incubated at 37° C., 0.1% bovine casein (no human serum albumin)) [nM]","Emax (hGIPR; HEK293, read-out: hGIPR Emax, % ± SEM, 0.1% bovine casein and 1.0% human serum albumin, 37° C., percent of maximal response to GIP(1-42)NH2) [%]","Emax (hGIPR; HEK293, read-out: hGIPR Emax, % ± SEM, percent of maximal response to GIP(1-42)NH2, 37° C., 0.1% bovine casein, arithmetic mean) [%]","EC50 (hGIPR; hGIPR EC50, nM (SEM, n), 0.1% bovine casein and 1.0% human serum albumin, 37° C.) [nM]","Emax (hGLP-1R; HEK293, read-out: hGLP-1R Emax, % ± SEM, 0.1% bovine casein and 1.0% human serum albumin, 37° C., percent of maximal response to GLP-1(7-36)NH2) [%]"
CC[C@H](C)[C@H](NC(=O)[C@H](CCCN)NC(=O)[C@H](CC(=O)O)NC(=O)[C@H](CC(C)C)NC(=O)[C@](C)(CC(C)C)NC(=O)[C@@H](NC(=O)[C@H](CO)NC(=O)[C@H](Cc1ccncc1)NC(=O)[C@H](CC(=O)O)NC(=O)[C@H](CO)NC(=O)[C@@H](NC(=O)[C@](C)(Cc1ccccc1F)NC(=O)[C@@H](NC(=O)CNC(=O)[C@H](CCC(=O)O)NC(=O)C(C)(C)NC(=O)[C@@H](N)Cc1ccc(O)cc1)[C@@H](C)O)[C@@H](C)O)[C@@H](C)CC)C(=O)N[C@@H](C)C(=O)N[C@@H](CCC(N)=O)C(=O)NC(C)(C)C(=O)N[C@@H](CCC(=O)O)C(=O)N[C@@H](Cc1ccccc1)C(=O)N[C@H](C(=O)N[C@@H](CCCCNC(=O)COCCOCCNC(=O)COCCOCCNC(=O)CCCCCCCCCCCCC(=O)O)C(=O)N[C@@](C)(Cc1ccc(O)cc1)C(=O)N[C@@H](CC(C)C)C(=O)N[C@H](C(=O)N[C@@H](CCCCNC(=O)COCCOCCNC(=O)COCCOCCNC(=O)CCCCCCCCCCCCC(=O)O)C(=O)NCC(=O)NCC(=O)N1CCC[C@H]1C(=O)N[C@@H](CO)C(=O)N[C@@H](CO)C(=O)NCC(=O)N[C@@H](C)C(=O)N1CCC[C@H]1C(=O)N1CCC[C@H]1C(=O)N1CCC[C@H]1C(=O)N[C@@H](CO)C(N)=O)[C@@H](C)CC)[C@@H](C)CC [Example 192],> 9950,> 9950,93.6 ± 3.98,96.5 ± 4.86,0.0375,11.2,121 ± 2.56,100 ± 2.34,0.518,–,–,–,–,–,–
CC[C@H](C)[C@H](NC(=O)[C@H](CCCN)NC(=O)[C@H](CC(=O)O)NC(=O)[C@H](CC(C)C)NC(=O)[C@](C)(CC(C)C)NC(=O)[C@@H](NC(=O)[C@H](CO)NC(=O)[C@H](Cc1ccncc1)NC(=O)[C@H](CC(=O)O)NC(=O)[C@H](CO)NC(=O)[C@@H](NC(=O)[C@](C)(Cc1ccccc1F)NC(=O)[C@@H](NC(=O)CNC(=O)[C@H](CCC(=O)O)NC(=O)C(C)(C)NC(=O)[C@@H](N)Cc1ccc(O)cc1)[C@@H](C)O)[C@@H](C)O)[C@@H](C)CC)C(=O)N[C@@H](C)C(=O)N[C@@H](CCC(N)=O)C(=O)NC(C)(C)C(=O)N[C@@H](CCC(=O)O)C(=O)N[C@@H](Cc1ccccc1)C(=O)N[C@H](C(=O)N[C@@H](CCCCNC(=O)COCCOCCNC(=O)COCCOCCNC(=O)CCCCCCCCCCCCC(=O)O)C(=O)N[C@@](C)(Cc1ccc(O)cc1)C(=O)N[C@@H](CC(C)C)C(=O)N[C@H](C(=O)N[C@@H](CCC(=O)O)C(=O)NCC(=O)NCC(=O)N[C@@H](CCCCNC(=O)COCCOCCNC(=O)COCCOCCNC(=O)CCCCCCCCCCCCC(=O)O)C(=O)N[C@@H](CO)C(=O)N[C@@H](CO)C(=O)NCC(=O)N[C@@H](C)C(=O)N1CCC[C@H]1C(=O)N1CCC[C@H]1C(=O)N1CCC[C@H]1C(=O)N[C@@H](CO)C(N)=O)[C@@H](C)CC)[C@@H](C)CC [Example 193],> 9950,> 9950,92.2 ± 0.24,97.2 ± 4.63,0.0201,24.3,–,–,0.382,–,–,–,–,–,–
CC[C@H](C)[C@H](NC(=O)[C@H](CCCN)NC(=O)[C@H](CC(=O)O)NC(=O)[C@H](CC(C)C)NC(=O)[C@](C)(CC(C)C)NC(=O)[C@@H](NC(=O)[C@H](CO)NC(=O)[C@H](Cc1ccncc1)NC(=O)[C@H](CC(=O)O)NC(=O)[C@H](CO)NC(=O)[C@@H](NC(=O)[C@](C)(Cc1ccccc1F)NC(=O)[C@@H](NC(=O)CNC(=O)[C@H](CCC(=O)O)NC(=O)C(C)(C)NC(=O)[C@@H](N)Cc1ccc(O)cc1)[C@@H](C)O)[C@@H](C)O)[C@@H](C)CC)C(=O)N[C@@H](C)C(=O)N[C@@H](CCC(N)=O)C(=O)NC(C)(C)C(=O)N[C@@H](CCC(=O)O)C(=O)N[C@@H](Cc1ccccc1)C(=O)N[C@H](C(=O)N[C@@H](CCCCNC(=O)COCCOCCNC(=O)COCCOCCNC(=O)CCCCCCCCCCCCC(=O)O)C(=O)N[C@@](C)(Cc1ccc(O)cc1)C(=O)N[C@@H](CC(C)C)C(=O)N[C@H](C(=O)N[C@@H](CCC(=O)O)C(=O)NCC(=O)NCC(=O)N1CCC[C@H]1C(=O)N[C@@H](CO)C(=O)N[C@@H](CO)C(=O)NCC(=O)N[C@@H](C)C(=O)N1CCC[C@H]1C(=O)N1CCC[C@H]1C(=O)N1CCC[C@H]1C(=O)N[C@@H](CO)C(=O)N[C@@H](CCCCNC(=O)COCCOCCNC(=O)COCCOCCNC(=O)CCCCCCCCCCCCC(=O)O)C(N)=O)[C@@H](C)CC)[C@@H](C)CC [Example 194],–,–,–,–,–,–,–,–,–,> 9950,> 9950,80.7 ± 7.81,93.1 ± 1.05,1.24,109 ± 10.5

# Reference: US20230265151A1, “GIP/GLP1 CO-AGONIST COMPOUNDS” (priority 2020, published 2023)
